According to paper PMC8169650, “Identification of Small Molecule Inhibitors of a Mir155 Transcriptional Reporter in Th17 Cells” (Scientific Reports, 2021):

Columns and labels:
Mir155 reporter = Mir155 reporter Beta-Glo HTS assay (β-gal activity); type: cell-based, mouse; conditions: for EC50: Mus musculus, β-gal signal, 48 h, read-out: EC50, inhibition of Mir155 reporter expression; for EC50 / effect on Mir155 reporter expression: Th17 cells from Mir155 reporter mice; for effect on Mir155 reporter expression: dose response
Experimental: To develop an assay for the HTS screen, CD4^+ T cells were purified from spleen and lymph nodes of the Mir155 reporter mice. The purified CD4^+ T cells were cultured under Th17 cell-polarizing conditions in twelve well plates following which differentiated Th17 cells were transferred and expanded in six well plates followed by a resting period of 2 days in T cell media (schema depicted in Fig. 1a). We first optimized the cell number to maximize the assay window. To this end, differentiated Th17 cells were plated at different cell densities in the wells of polystyrene 1536-well plates under Th17 polarizing conditions. T cell activation was accomplished using two protocols. In the first protocol, magnetic beads coupled to anti-CD3 and anti-CD28 antibodies (CD3/CD28 microbeads) were added to mediate T cell activation as induction of MiR155 expression requires engagement of the TCR CD3 complex (signal 1) plus the co-stimulatory molecule CD28 (signal 2). The cells along with the beads were incubated at 37 °C, 5% CO2 for 48 h and, subsequently, high-throughput quantitation of β-gal activity was performed after 30 min of incubation using the Beta-Glo Assay system (Fig. 1b).
The NPC collection was screened at seven concentrations (top concentration 46 µM; 1:5 dilution thereafter) and drug response curves for the compounds were generated using our qHTS curve class classification algorithm as described above.
CD4^+ cells were purified from spleens and lymph nodes of Mir155 reporter mice as described above. Briefly, single cell suspensions were prepared by mechanical disruption followed by lysis of red blood cells with 0.83% ammonium chloride. CD4^+ T cells were either isolated by FACS sorting (BD FACS Aria) or were positively selected using magnetic CD4 microbeads (Miltenyi Biotec)[43]. 1 million CD4^+ cells/well were cultured in anti-CD3/CD28 (1 µg/ml each) coated 12 well plates under Th17 polarization conditions following which differentiated Th17 cells were transferred and expanded in six well plates followed by a resting period of 2 days in T cell media. A cocktail containing 10 ng/ml each of IL-6, IL-1 β, IL-21 and TGF-β (0.5 ng/ml) and IFNγ, IL-4, IL-12 neutralizing antibodies (10 μg/ml) was used for the Th17 polarizing conditions. For the HTS assay, 2000 differentiated Th17 cells/well in Th17 polarizing media were added to Greiner-one high base solid bottom white tissue culture treated 1536 well plates (catalog # 789173-F) using a small cassette and a Multidrop Combi dispenser (Thermo Fisher Scientific Inc.,Waltham, MA). Compounds were added using a Kalypsys pintool (Columns 5–48) and magnetic beads coupled to anti-CD3 and anti-CD28 (CD3/CD28 microbeads) were added to mediate T cell activation. CD3/CD28 microbeads were not added to first 2 columns and those wells served as basal control. DMSO was added to columns 3 and 4 and served as 100% signal. The plates were incubated for 48 h at 37 °C, 5% CO2, 95% humidity covered with low evaporation stainless steel lids from Kalypsys. After 48 h of incubation, 5 µl of Beta-Glo reagent (Beta Glo Assay System, Promega) was added using a Bioraptor Flying Reagent Dispenser (Aurora Discovery-BD) and the plates were incubated at room temperature for 30 min. Luminescence signal was captured using a 10 s exposure with a ViewLux (Perkin Elmer) containing a luminescent filter. Beta Glo reagent consists of Beta Glo substrate and buffer that are combined to form the Beta Glo reagent (Beta Glo Assay System, Promega).

[1] = system: IL-17 production in Th17 cells; experiment: Intracellular IL-17 flow cytometric cytokine assay under Th17 polarization; type: cell-based, mouse; conditions: for IL-17+ cells, gated on live CD4+CD44high cells / inhibition at 20 µM: 20 µM; for IL-17+ cells, gated on live CD4+CD44high cells: DMSO 32% (panel b), 36.8% (panel c); for inhibition at 20 µM: Mus musculus, 96 h, day 4, C57BL/6 CD4+ T cells, read-out: down-regulation (inhibition) of IL-17 production compared to control
Experimental: (§1) It has been previously shown that IL-17 production is defective in miR-155 deficient cells. […] To test the hit compounds for IL-17 downregulation, we purified naive CD4^+ T cells from C57BL/6 mice and cultured them under Th17 polarization condition. Small molecules at multiple concentrations (20 µM, 10 µM and 5 µM) were added 18 h post-plating of CD4^+ T cells on anti-CD3/CD28 coated plates and again on day 2 of culture (schema depicted in Fig. 3a).
(§2) Spleens and lymph nodes were harvested from mice and single cell suspensions were prepared by mechanical disruption followed by lysis of red blood cells with 0.83% ammonium chloride. CD4^+ T cells were either isolated by FACS sorting (BD FACS Aria) or were positively selected using magnetic CD4 microbeads (Miltenyi Biotec). For intracellular IL-17 quantitation by flow cytometry, 0.25 million cells/ well were plated in anti-CD3/CD28 (1 µg/ml) coated 48 well plates. A cocktail containing 10 ng/ml each of IL-6, IL-1 β, IL-21 and TGF-β (0.5 ng/ml) and IFNγ, IL-4, IL-12 neutralizing antibodies (10 μg/ml) was used for the Th17 polarizing conditions. All recombinant cytokines were purchased from R&D Systems and crosslinking antibodies were purified from hybridomas (Harlan). Cells were treated with small molecules at indicated concentrations at 18 h and 48 h of cell plating. On day 4 of the culture, cells were stimulated with 20 ng/ml of phorbol 12-myristate 13-acetate (PMA) and ionomycin (1 μg/ml) for 4 h in the presence of brefeldin A. Following stimulation, cells were stained with fixable viability dye (eBioscience) and surface stained for CD44 and CD4, permeabilized using cytofix/cytoperm (BD biosciences) and subsequently, stained for intracellular IL-17. Foxp3/Transcription Factor Staining kit (eBioscience) kit was used for intranuclear staining of RORγt. Samples were acquired on BD Fortessa and analyzed using Flowjo (Tree star Inc).

Th17 cells = experiment: RNA-seq of CD4+ T cells under Th17 polarizing conditions; type: cell-based, mouse; conditions: 20 µM, 24 h, vs DMSO
Description: The (E)-1-(phenylsulfonyl)-2-styryl-1H-benzo[d] imidazoles were identified from the diversity library and the target for these compounds is not known. We investigated the possible molecular mechanism(s) regulating impaired Th17 cell function using whole-transcriptome RNA-sequencing (RNA-seq) of CD4^+ T cells treated with NCGC00108246 or NCGC00108250 (representative imidazole compounds) under Th17 polarizing conditions. We performed differential gene expression to compare the two imidazole-treated conditions (n = 6) to DMSO (n = 3). Imidazole treated samples (NCGC00108246 or NCGC00108250) had similar gene expression profiles and clustered together, and distinct from DMSO. […] We confirmed down-regulation of IL-17 cytokines (IL-17a and IL-17f.) in NCGC00108246 or NCGC00108250 treated cells (Fig. 4a,b). […] In alignment with the protein data, transcript levels for Th17 cell-specific transcription factor RORγt encoded by Rorc gene were not affected after treatment with imidazoles (Fig. S2b,c).
For RNA seq, T cells were treated with compounds for 24 h in Th17 polarizing conditions, following which RNA was extracted using the mirVana kit (Applied Biosystems). Qubit RNA broad range assay in the Qubit Flurometer (Invitrogen) was used to measure RNA concentration, following which RNA integrity was determined with Eukaryote Total RNA Nano Series II ChIP on a 2100 Bioanalyzer (Agilent). TruSeq RNA sample preparation kit (Illumina) was used to prepare RNA-seq libraries. Briefly, oligo-dT purified mRNA was fragmented and subjected to first and second strand cDNA synthesis. cDNA fragments were blunt ended, ligated to Illumina adaptors and PCR amplified to enrich for the fragments ligated to adaptors. The resulting cDNA libraries were verified and quantified on Agilent Bioanalyzer and single-end 96 cycle sequencing was conducted (Illumina) as previously described.
For data analysis, RNA-seq reads were aligned to the mm10 genome and the GRCm38 v87 transcriptome with STAR v2.5.2a[44] using default parameters and output tracks normalized by RPM (–outWigNorm RPM). RSEM v1.3[45] was used to calculate gene counts and TPMs on the transcriptome-aligned reads as previously described[16],[43]. Differential expression analysis was performed in R v3.5.2, using DESeq2[46] v1.22.2, resulting in 2328 differentially expressed genes when contrasting NCGC00108246 or NCGC00108250 treated samples versus DMSO controls. […] The volcano plot was generated with the R package (R-project.org at https://www.R-project.org/), Enhanced Volcano. Heatmaps were generated with the R package, pheatmap. Integrative Genomics Viewer v2.4.19[48] was used for visualization of normalized bigwig tracks.

CD4+ T cells = experiment: Viability dye and CD44 activation staining in the IL-17 flow cytometric assay; type: cell-based; conditions: Fig. S2a
Experimental: as §1, §2

[2] = fresh batch compared to older batch

Row | EC50 (Mir155 reporter) [nM] | SMILES | IL-17+ cells, gated on live CD4+CD44high cells [1] [%] | inhibition at 20 µM [1] [%] | effect on Mir155 reporter expression (Mir155 reporter) | further results
1 | 12600 | CCOc1ccc(/C=C/c2nc3ccccc3n2S(=O)(=O)c2ccc(Br)cc2)cc1 [NCGC00108244] | 30.4 | 17 | – | –
2 | 3500 | CCOc1ccc(/C=C/c2nc3ccccc3n2S(=O)(=O)c2cccc(Cl)c2)cc1 [NCGC00108246] | 3.1 | 90 | – | IL-17a and IL-17f transcripts (Th17 cells): down-regulation; IL-22 and IL-23r transcripts (Th17 cells): down-regulated
3 | 2200 | CSc1ccc(/C=C/c2nc3ccccc3n2S(=O)(=O)c2ccc(Br)cc2)cc1 [NCGC00108248, (E)-1-((4-bromophenyl)sulfonyl)-2-(4-(methylthio)styryl)-1H-benzo[d] imidazole] | 3.8 | 90 | – | activity in miR-155 HTS assay, solutions of fresh powders (Mir155 reporter; [2]): inactive or demonstrated attenuated activity; inhibition of IL-17, solutions of fresh powders [1, 2]: not potent inhibitors of IL-17
4 | 2000 | CSc1ccc(/C=C/c2nc3ccccc3n2S(=O)(=O)c2cccc(Cl)c2)cc1 [NCGC00108250] | 4.4 | 88 | – | live cells (fixable viability dye, Live-dead) (CD4+ T cells; DMSO 77.4% / 80.6%): 80.5%; CD4+ CD44+ cells (CD4+ T cells; DMSO 97.2% / 98.2%): 96.1%; IL-17 / RORγt plot, percent cells, gated on live CD4+CD44high ([1]; Fig. S2b, DMSO 32.4% / 21.2%): 3.2%; IL-17a and IL-17f transcripts (Th17 cells): down-regulation; IL-22 and IL-23r transcripts (Th17 cells): down-regulated
5 | 600 | Cc1ccc(/C=C/c2nc3ccccc3n2S(=O)(=O)c2cccc(Cl)c2)cc1 [NCGC00140605] | 13.1 | 65 | – | –
6 | 3700 | Cc1ccc(/C=C/c2nc3ccccc3n2S(=O)(=O)c2ccc(Br)cc2)cc1 [NCGC00140607] | 16.6 | 55 | – | –
7 | 1200 | CSc1ccc(/C=C/c2nc3ccccc3[nH]2)cc1 [NCGC00507974, (E)-2-(4-(methylthio)styryl)-1H-benzo[d] imidazole] | – | – | dose dependent reduction of Mir155 reporter expression | effect on IL-17 production ([1]; C57BL/6 CD4+ T cells, Th17 polarization): dose-dependent inhibition of IL-17 production
8 | – | c1ccc(-c2ccc(C(c3ccccc3)n3ccnc3)cc2)cc1 (stereo not shown) [bifonazole, reference compound] | – | – | either modest down-regulators or did not affect Mir155 reporter expression | –
9 | – | OC(Cn1cncn1)(Cn1cncn1)c1ccc(F)cc1F [fluconazole, reference compound] | – | – | either modest down-regulators or did not affect Mir155 reporter expression | –
10 | – | CC(=O)N1CCN(c2ccc(OCC3COC(Cn4ccnc4)(c4ccc(Cl)cc4Cl)O3)cc2)CC1 (stereo not shown) [ketoconazole, reference compound] | – | – | either modest down-regulators or did not affect Mir155 reporter expression | –
11 | – | Clc1cccc(C(c2ccc3[nH]cnc3c2)n2ccnc2)c1 (stereo not shown) [liarozole, reference compound] | – | – | either modest down-regulators or did not affect Mir155 reporter expression | –
